Assay results: PubChem BioAssay (NCI)
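Interpolation was linear, between the two tested concentrations surrounding the appropriate level; five concentrations were tested over 48 hours in 96-well plates. GI50: concentration for 50% inhibition of growth. The concentration for full growth arrest is given as TGI.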

What was measured:
Assay in all cases: NCI-60 cell line screen, 48 h
EKVX NSCLC = system: EKVX NSCLC
UACC-257 melanoma = system: UACC-257 melanoma
K-562 leukemia = system: K-562 leukemia
HS 578T breast = system: HS 578T breast
SNB-75 CNS = system: SNB-75 CNS
BT-549 breast = system: BT-549 breast
NCI-H460 lung = system: NCI-H460 lung
RPMI-8226 leukemia = system: RPMI-8226 leukemia
SK-MEL-5 melanoma = system: SK-MEL-5 melanoma
MDA-MB-231 breast = system: MDA-MB-231 breast
MDA-N = system: MDA-N
UO-31 renal = system: UO-31 renal
HOP-92 NSCLC = system: HOP-92 NSCLC
NCI/ADR-RES ovarian = system: NCI/ADR-RES ovarian
UACC-62 melanoma = system: UACC-62 melanoma
MOLT-4 leukemia = system: MOLT-4 leukemia
RXF 393 renal = system: RXF 393 renal
SW-620 colon = system: SW-620 colon
NCI-H226 lung = system: NCI-H226 lung
T-47D breast = system: T-47D breast
SF-539 CNS = system: SF-539 CNS
OVCAR-4 ovarian = system: OVCAR-4 ovarian
ACHN renal = system: ACHN renal
NCI-H23 lung = system: NCI-H23 lung
A498 renal = system: A498 renal
SK-OV-3 ovarian = system: SK-OV-3 ovarian
OVCAR-8 ovarian = system: OVCAR-8 ovarian
PC-3 prostate = system: PC-3 prostate
TK-10 renal = system: TK-10 renal
SNB-19 CNS = system: SNB-19 CNS
HL-60(TB) leukemia = system: HL-60(TB) leukemia
COLO 205 colon = system: COLO 205 colon
HCT-116 colon = system: HCT-116 colon
SN12C renal = system: SN12C renal
DU-145 prostate = system: DU-145 prostate
CAKI-1 renal = system: CAKI-1 renal
A549 NSCLC = system: A549 NSCLC
CCRF-CEM leukemia = system: CCRF-CEM leukemia
OVCAR-3 ovarian = system: OVCAR-3 ovarian
SF-295 CNS = system: SF-295 CNS
HOP-62 NSCLC = system: HOP-62 NSCLC
LOX IMVI melanoma = system: LOX IMVI melanoma
786-0 renal = system: 786-0 renal
NCI-H522 lung = system: NCI-H522 lung
HT29 colon = system: HT29 colon
MDA-MB-435 = system: MDA-MB-435
IGROV1 ovarian = system: IGROV1 ovarian
HCT-15 colon = system: HCT-15 colon
SF-268 CNS = system: SF-268 CNS
MCF7 breast = system: MCF7 breast
MALME-3M melanoma = system: MALME-3M melanoma
M14 melanoma = system: M14 melanoma
KM12 colon = system: KM12 colon
U251 CNS = system: U251 CNS
OVCAR-5 ovarian = system: OVCAR-5 ovarian
SK-MEL-28 melanoma = system: SK-MEL-28 melanoma
SR leukemia = system: SR leukemia
HCC-2998 colon = system: HCC-2998 colon
SK-MEL-2 melanoma = system: SK-MEL-2 melanoma

Structure (SMILES): N#Cc1ccccc1CSc1ncnc2nc[nH]c12
- GI50 (EKVX NSCLC): 90.1 µM
- GI50 (UACC-257 melanoma): 44.5 µM
- GI50 (K-562 leukemia): 67.2 µM
- GI50 (HS 578T breast): 51.9 µM
- GI50 (SNB-75 CNS): 9.8 µM
- TGI (SNB-75 CNS): 67.1 µM
- GI50 (BT-549 breast): 56.6 µM
- GI50 (NCI-H460 lung): 83.3 µM
- GI50 (RPMI-8226 leukemia): 53.1 µM
- GI50 (SK-MEL-5 melanoma): 74.3 µM
- GI50 (MDA-MB-231 breast): 51 µM
- GI50 (MDA-N): 83.3 µM
- GI50 (UO-31 renal): 47.4 µM
- GI50 (HOP-92 NSCLC): 28.6 µM
- GI50 (NCI/ADR-RES ovarian): 60.4 µM
- GI50 (UACC-62 melanoma): 77.2 µM
- GI50 (MOLT-4 leukemia): 80.3 µM
- GI50 (RXF 393 renal): 94.9 µM

Structure (SMILES): CSc1nnc(SC)nn1
- TGI (SW-620 colon): 35.5 µM
- TGI (NCI-H226 lung): 96.5 µM
- TGI (EKVX NSCLC): 30.8 µM
- TGI (T-47D breast): > 100 µM
- TGI (SF-539 CNS): 32.1 µM
- TGI (OVCAR-4 ovarian): 32.5 µM
- TGI (ACHN renal): 30.5 µM
- TGI (NCI-H23 lung): 49.4 µM
- TGI (A498 renal): > 100 µM
- TGI (SK-OV-3 ovarian): 49 µM
- TGI (UACC-257 melanoma): 30.3 µM
- TGI (OVCAR-8 ovarian): 35.9 µM
- TGI (K-562 leukemia): 27.4 µM
- TGI (PC-3 prostate): 33.7 µM
- TGI (TK-10 renal): 25.8 µM
- TGI (HS 578T breast): 77.1 µM
- TGI (SNB-19 CNS): 43.3 µM
- TGI (SNB-75 CNS): 31.2 µM
- TGI (BT-549 breast): 29.7 µM
- TGI (HL-60(TB) leukemia): 11.6 µM
- TGI (COLO 205 colon): 32.7 µM
- TGI (HCT-116 colon): 23.9 µM
- TGI (SN12C renal): 39.7 µM
- TGI (DU-145 prostate): 45.4 µM
- TGI (CAKI-1 renal): 31.4 µM
- TGI (NCI-H460 lung): 32.9 µM
- TGI (A549 NSCLC): 43.3 µM
- TGI (CCRF-CEM leukemia): 4.53 µM
- TGI (OVCAR-3 ovarian): 31.6 µM
- TGI (SF-295 CNS): 33.9 µM
- TGI (HOP-62 NSCLC): 29.1 µM
- TGI (LOX IMVI melanoma): 38 µM
- TGI (786-0 renal): 27.1 µM
- TGI (NCI-H522 lung): 31.6 µM
- TGI (HT29 colon): 36.5 µM
- TGI (MDA-MB-435): 32.4 µM
- TGI (RPMI-8226 leukemia): 32.7 µM
- TGI (IGROV1 ovarian): 31 µM
- TGI (SK-MEL-5 melanoma): 29.6 µM
- TGI (HCT-15 colon): 35.2 µM
- TGI (MDA-MB-231 breast): 39.7 µM
- TGI (MDA-N): 30.1 µM
- TGI (SF-268 CNS): 29.4 µM
- TGI (UO-31 renal): 29.5 µM
- TGI (MCF7 breast): 32.7 µM
- TGI (HOP-92 NSCLC): 14.8 µM
- TGI (NCI/ADR-RES ovarian): 31.9 µM
- TGI (MALME-3M melanoma): 27 µM
- TGI (UACC-62 melanoma): 34 µM
- TGI (M14 melanoma): 28.9 µM
- TGI (KM12 colon): 30 µM
- TGI (U251 CNS): 41.8 µM
- TGI (MOLT-4 leukemia): 2.37 µM
- TGI (OVCAR-5 ovarian): 33.6 µM
- TGI (RXF 393 renal): 30.3 µM

Structure (SMILES): COC(=O)c1cc2c(cc1Cl)Sc1nnc(Nc3ccc(C)cc3)n1S2(=O)=O
- TGI (NCI-H226 lung): 28.2 µM
- TGI (EKVX NSCLC): 27.7 µM
- TGI (SK-MEL-28 melanoma): 21.8 µM
- TGI (T-47D breast): 4.12 µM
- TGI (SF-539 CNS): 2.92 µM
- TGI (OVCAR-4 ovarian): 10.7 µM
- TGI (ACHN renal): 8.8 µM
- TGI (NCI-H23 lung): 15.7 µM
- TGI (A498 renal): 28.9 µM
- TGI (SK-OV-3 ovarian): 24.1 µM
- TGI (UACC-257 melanoma): 25.6 µM
- TGI (OVCAR-8 ovarian): 40.4 µM
- TGI (K-562 leukemia): 33.4 µM
- TGI (PC-3 prostate): 18 µM
- TGI (TK-10 renal): 27.7 µM
- TGI (HS 578T breast): 32.7 µM
- TGI (SNB-19 CNS): 20.2 µM
- TGI (BT-549 breast): 30.5 µM
- TGI (HL-60(TB) leukemia): 13.8 µM
- TGI (COLO 205 colon): 17.9 µM
- TGI (HCT-116 colon): 24.5 µM
- TGI (SN12C renal): 36.5 µM
- TGI (DU-145 prostate): 7.31 µM
- TGI (CAKI-1 renal): 22 µM
- TGI (NCI-H460 lung): 25.7 µM
- TGI (A549 NSCLC): 35.8 µM
- TGI (CCRF-CEM leukemia): 36.1 µM
- TGI (OVCAR-3 ovarian): 5.77 µM
- TGI (SR leukemia): 6.2 µM
- TGI (SF-295 CNS): 30.4 µM
- TGI (HOP-62 NSCLC): 23.5 µM
- TGI (786-0 renal): 24.1 µM
- TGI (NCI-H522 lung): 10.3 µM
- TGI (HT29 colon): 15.5 µM
- TGI (MDA-MB-435): 21.1 µM
- TGI (HCC-2998 colon): 17.5 µM
- TGI (RPMI-8226 leukemia): 5.44 µM
- TGI (IGROV1 ovarian): 7.75 µM
- TGI (SK-MEL-5 melanoma): 27.6 µM
- TGI (HCT-15 colon): 12.5 µM
- TGI (MDA-MB-231 breast): 27.2 µM
- TGI (MDA-N): 20.6 µM
- TGI (SF-268 CNS): 10.9 µM
- TGI (UO-31 renal): 23.6 µM
- TGI (MCF7 breast): 11.4 µM
- TGI (HOP-92 NSCLC): 16.5 µM
- TGI (NCI/ADR-RES ovarian): 25.7 µM
- TGI (MALME-3M melanoma): 26.3 µM
- TGI (UACC-62 melanoma): 26 µM
- TGI (M14 melanoma): 27.6 µM
- TGI (KM12 colon): 20.3 µM
- TGI (U251 CNS): 17 µM
- TGI (SK-MEL-2 melanoma): 9.16 µM
- TGI (MOLT-4 leukemia): 7.07 µM
- TGI (OVCAR-5 ovarian): 39.8 µM
- TGI (RXF 393 renal): 13.2 µM
